Laboratory results taken from paper PMC6044831 (ACS Omega, 2018).

Assay: Storage stability of [^125I] 5 in the refrigerator
Type: physicochemical
Conditions: 4 °C, storage time over which compound found stable

## O=CCCCNC(=O)c1ccc([125I])cc1 [[^125I] 5]
  stable in the refrigerator (no hydrolysis): more than 6 months
